# Experimental data as given in patent US20250381155A1, “USE OF 2-HYDROXYBENZYLAMINE IN THE TREATMENT AND PREVENTION OF PULMONARY HYPERTENSION” (Vanderbilt University, priority 2016, published 2025).
# Entries after “also recorded” stand apart in the source; their conditions may differ.
# Key:
# BMPR2^R899X mice [1] = assay: Glutamine synthetase in liver mitochondria and circulating glutamine in treated BMPR2^R899X mice; type: in vivo
# Description: (§1) To assess mitochondrial respiration in cultured PMVECs, cells were seeded in growth media in a 96-well plate from Seahorse Biosciences (Bilerica, MA) at a seeding density of 50,000 live cells per well. The following day, cells were washed and placed in Seahorse Assay Media supplemented with specific substrates (1 gm/L glucose, 2 mM L-glutamine). After equilibration, oxygen consumption rates were measured on a Seahorse XFe96 analyzer using the Mito Stress Test protocol. For mitochondrial protein measurements, mitochondria were isolated from fresh murine liver tissue as previously described.^24
# (§2) All animal studies were approved by the Vanderbilt IACUC. Male and female FVB/N mice were 10-16 weeks of age. BMPR2^R899X mice were generated and maintained as previously described.^24,25 For 2HOBA studies, 1 gm/L was administered in the drinking water, with water bottles protected from light and water changes every 2-3 days.
# (§3) Having shown that impaired BMPR2 function is associated with loss of SIRT3 function, and that this can be prevented with 2HOBA treatment to scavenge damaging lipid peroxidation products, the present inventors next wished to assess the in vivo metabolic dysfunction downstream from BMPR2 mutation, the relationship to PAH, and the effect of 2HOBA treatment. […]
# [2] = Long-term safety, continuous dosing in mice; type: in vivo; details: over 12 months of continuous dosing in mice
# WT mice = assay: Glutamine synthetase in liver mitochondria of treated WT mice; type: in vivo; details: 2HOBA treatment
# Description: as §1, §2, §3
# BMPR2^R899X mice [3] = assay: Development of PAH in BMPR2^R899X mice (total pulmonary resistance, cardiac output by echocardiography, invasive RVSP); type: in vivo
# Description: as §2
# Echocardiography was performed on anesthetized mice (isoflurane anesthesia) to determine cardiac output. Right ventricular systolic pressure (RVSP) was invasively measured as described, using bromoethanol as the anesthetic.^24,25
# All statistics were performed using GraphPad Prism 6.0 or Microsoft Excel unless otherwise specified. For animal experiments, sample sizes were chosen based upon previous experiments with approximately 80% of transgenic animals showing RVSP>30 mm Hg. Animals were randomly assigned to treatment groups by cage. For all measurements, investigators were blind to treatments and genotype until data analysis. Data were analyzed using two-tailed t-test, or two-way ANOVA with Tukey's post-test, as indicated. Significance was set at α<0.05 after correction for multiple comparisons.
# Having shown that impaired BMPR2 function is associated with loss of SIRT3 function, and that this can be prevented with 2HOBA treatment to scavenge damaging lipid peroxidation products, the present inventors next wished to assess the in vivo metabolic dysfunction downstream from BMPR2 mutation, the relationship to PAH, and the effect of 2HOBA treatment. The present inventors hypothesized that 2HOBA would prevent the development of PAH in BMPR2^R899X mice and would have a beneficial modulatory effect on glutamine metabolism in vivo. Expression of the BMPR2^R899X allele was sufficient to drive upregulation of glutamine synthetase in skeletal muscle (FIG. 10) and in liver mitochondria (FIG. 7A) compared to WT.
# SIRT3 = assay: Lysine acetylation and SIRT3 content of the mitochondrial proteome from treated BMPR2^R899X mice (Western blot); type: in vivo; details: 1 g/L 2HOBA in drinking water
# Description: as §1, §2
# Because sirtuin expression and activity is tightly regulated by substrate availability, nutrient intake, physical activity, and interacting signaling pathways operating between organ systems, the role of SIRT3 in BMPR2-mediated PAH is best studied in a murine model system. […] The mitochondrial proteome was assessed for acetylation of lysine residues, with SIRT3 inactivation leading to lysine hyperacetylation. […]
# [4] = pre-clinical animal studies; cited from earlier work
# WT PMVEC = assay: Extracellular glutamine to glucose flux ratio in WT PMVEC; type: cell-based; details: low-dose chetomin
# Description: (§4) The present inventors used previously characterized WT and BMPR2 mutant (BMPR2^R899X) pulmonary microvascular endothelial cells isolated from conditionally immortalized murine lines generated on the ImmortoMouse background,^20 and WT and BMPR2 mutant PMVECs from a parent immortalized human line stably expressing either a WT or BMPR2 mutant construct transfected into the parent line and maintained under selection with G418S. […]
# (§5) Glucose and lactate levels were measured using the YSI 2300 Stat Glucose and Lactate Analyzer (Yellow Springs, OH). High performance liquid chromatography (HPLC) was used to quantify amino acid concentrations, with norvaline as an internal standard. […] Flux rates were calculated using the ETA software package.^22
# (§6) The present inventors next wished to determine the molecular events downstream from BMPR2 mutation that contribute to glutamine reliance. […] Then WT and BMPR2 mutant PMVEC was treated with chetomin, a pharmacologic inhibitor of HIF, and assessed glucose and glutamine uptake by quantifying the extracellular flux ratio of glutamine to glucose. […]
# BMPR2 mutant PMVEC = assay: Extracellular glutamine to glucose flux ratio in BMPR2 mutant PMVEC; type: cell-based; details: low-dose chetomin
# Description: as §4, §5, §6
# [5] = 2HOBA vs vehicle-treated mutants
Structure (SMILES),circulating (plasma) glutamine (BMPR2^R899X mice [1]; 2HOBA-treated BMPR2^R899X mice compared to 2HOBA-treated WT mice),"glutamine synthetase in liver mitochondria (BMPR2^R899X mice [1]; BMPR2^R899X mice, 2HOBA treatment)",toxicity [2],glutamine synthetase in liver mitochondrial fraction (WT mice),development of pulmonary hypertension as measured by total pulmonary resistance (BMPR2^R899X mice [3]; 2HOBA compared to vehicle-treated mice),cardiac output (BMPR2^R899X mice [3]; [5]),right ventricular systolic pressure (RVSP) (BMPR2^R899X mice [3]; [5]),total SIRT3 content in the mitochondria (SIRT3),"lysine acetylation in the mitochondrial proteome (SIRT3; Western diet, isolated mitochondria)",safety profile [4],glutamine to glucose flux ratio (WT PMVEC),glutamine to glucose flux ratio (BMPR2 mutant PMVEC)
"NCc1ccccc1O [2HOBA, 2-hydroxybenzylamine]",significantly lower; also recorded: significantly reduces,reduced,no significant toxicity,not substantially,prevented the development of pulmonary hypertension; also recorded: to a level statistically indistinguishable from WT,modestly increased; also recorded: trends toward improved,decreased; also recorded: trends toward a decrease,without affecting,significantly reduced; also recorded: normalized,excellent safety profile,–,–
CN1C(=O)[C@]2(Cc3cn([C@]45C[C@@]67SS[C@@](CO)(C(=O)N6[C@H]4Nc4ccccc45)N(C)C7=O)c4ccccc34)SS[C@@]1(CO)C(=O)N2C [chetomin],–,–,–,–,–,–,–,–,–,–,no effect; also recorded: essentially unaffected,significantly reduced
